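Grown in 96-well plates, cells were treated for 48 hours with each compound at five concentrations. Insufficient inhibition: endpoint recorded as highest concentration tested. Here, GI50 denotes the concentration required for 50% inhibition of growth.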 Calls of active or inactive are those of the source. No stated cut-off is given here; in the data, active = GI50 up to about 1.1 µM and inactive = higher. Some results are limits rather than exact numbers.

Some test systems named below: MDA-MB-435; SF-295; ACHN; SR; HCC 2998; NCI-H23; SN12C; NCI-H522; UACC-257; MDA-N; IGROV-1; M14; LOX IMVI; SW-620; OVCAR-3; SK-OV-3; HL-60; KM12; COLO 205; MDA-MB-231.
Holding throughout (assay): growth of human tumour cells (NCI), 48 h

With `Oc1ccc(Nc2nc(Cl)c3nc[nH]c3n2)cc1`, the GI50 was > 100 µM (inactive) with MDA-MB-435; > 100 µM (inactive) in the test on SF-295; 93.1 µM (inactive) with ACHN; 28.1 µM (inactive) with SR; > 100 µM (inactive) with HCC 2998; > 100 µM (inactive) with NCI-H23. Also, the GI50 is > 100 µM (inactive) with SN12C; > 100 µM (inactive) in the test on NCI-H522; > 100 µM (inactive) with UACC-257; > 100 µM (inactive) in the test on MDA-N; 67.6 µM (inactive) with IGROV-1; > 100 µM (inactive) in the test with M14. Also, the GI50 in the test on LOX IMVI was 63.5 µM (inactive); with SW-620 it was > 100 µM (inactive); in the test on OVCAR-3, > 100 µM (inactive); in the test with SK-OV-3, > 100 µM (inactive); with HL-60 it was 34.5 µM (inactive); with KM12, > 100 µM (inactive). Moreover, the GI50 in the test with COLO 205 and in the test on MDA-MB-231 was > 100 µM (inactive) each time.
Turning to `COCOc1ccc(C2(O)Oc3cc(OCOC)ccc3C2C)c(O)c1` (stereo not given), the GI50 in the test on MDA-MB-435 was 14.9 µM (inactive); in the test on SF-295 it was 14.5 µM (inactive); with ACHN it was 12.9 µM (inactive); in the test on SR, 6.95 µM (inactive); in the test with HCC 2998, 13.5 µM (inactive); in the test on NCI-H23 it was 11.2 µM (inactive). The GI50 in the test on SN12C is 16.4 µM (inactive); in the test with NCI-H522 it was 18.2 µM (inactive); in the test with UACC-257, 12.1 µM (inactive); with MDA-N, 15.3 µM (inactive); in the test with IGROV-1, 17.6 µM (inactive); with M14, 16.6 µM (inactive). Also, the GI50 in the test on LOX IMVI is 16.9 µM (inactive); with SW-620, 18.4 µM (inactive); in the test with OVCAR-3, 13.4 µM (inactive); in the test on SK-OV-3 it was 17.5 µM (inactive); in the test with HL-60, 10.5 µM (inactive); in the test on KM12 it was 16.7 µM (inactive). Further, the GI50 in the test on COLO 205 is 18.2 µM (inactive); in the test on MDA-MB-231 it was 12.3 µM (inactive).
For the compound `CN1CCN(CCCCNc2cc3c4ccccc4c(NCCCCN4CCN(C)CC4)cc3c3ccccc23)CC1`, the GI50 with MDA-MB-435 is 0.184 µM (active); in the test on SF-295, 1.78 µM (inactive); in the test with ACHN, 4.06 µM (inactive); with SR it was 0.443 µM (active); in the test on HCC 2998, 1.81 µM (inactive); in the test with NCI-H23, 2.09 µM (inactive). In addition, the GI50 with SN12C was 2.61 µM (inactive); in the test on NCI-H522 it was 1.93 µM (inactive); in the test on UACC-257 it was 4.79 µM (inactive); in the test with MDA-N it was 0.317 µM (active); with IGROV-1, 1.93 µM (inactive); in the test with M14, 0.895 µM (active). Further, the GI50 with LOX IMVI is 0.962 µM (active); with SW-620 it was 1.43 µM (inactive); in the test on OVCAR-3, 2.98 µM (inactive); in the test on SK-OV-3 it was 14.6 µM (inactive); with HL-60, 4.03 µM (inactive); in the test on KM12 it was 1.55 µM (inactive). For the same compound, the GI50 in the test on COLO 205 is 2.36 µM (inactive); in the test on MDA-MB-231, 1.62 µM (inactive).
As to `O=C(O)[C@H]1NC[C@@H]2ON=C(Br)[C@@H]21`, the GI50 with MDA-MB-435, in the test with SF-295, in the test on ACHN, with SR, with HCC 2998 and in the test with NCI-H23 was > 100 µM (inactive) each time. Moreover, the GI50 in the test with SN12C, in the test on NCI-H522, in the test on UACC-257, in the test with MDA-N, in the test with IGROV-1 and in the test with M14 was > 100 µM (inactive) throughout. The GI50 in the test on LOX IMVI, with SW-620, in the test on OVCAR-3, in the test on SK-OV-3, with HL-60 and in the test on KM12 was > 100 µM (inactive) throughout. Besides, the GI50 in the test with COLO 205 and in the test with MDA-MB-231 was > 100 µM (inactive) throughout.
Consider `COc1cc(/C=C2\C[C@H]3[C@@H]4CC=C5C=C(N6CCCC6)CC[C@]5(C)[C@H]4CC[C@]3(C)C2=O)cc(OC)c1OC`, for which the GI50 with MDA-MB-435 is 1.63 µM (inactive); in the test on SF-295, 2.22 µM (inactive); in the test on ACHN, 2.32 µM (inactive); in the test on SR it was 1.44 µM (inactive); in the test with HCC 2998, 1.93 µM (inactive); in the test with NCI-H23 it was 2.52 µM (inactive). Also, the GI50 with SN12C is 2.85 µM (inactive); in the test with NCI-H522, 1.43 µM (inactive); in the test on UACC-257, 3.1 µM (inactive); with MDA-N it was 2.32 µM (inactive); in the test with IGROV-1 it was 1.79 µM (inactive); with M14, 2.19 µM (inactive). Also, the GI50 in the test with LOX IMVI is 1.48 µM (inactive); in the test on SW-620 it was 3.91 µM (inactive); in the test on OVCAR-3, 1.88 µM (inactive); with SK-OV-3, 6.89 µM (inactive); in the test on HL-60, 1.13 µM (inactive); in the test with KM12, 1.91 µM (inactive). Moreover, the GI50 is 2.77 µM (inactive) in the test on COLO 205 and 2.4 µM (inactive) with MDA-MB-231.
With `Cc1ccc(/C=N/Nc2cc(C)c3ccccc3n2)s1`, the GI50 with MDA-MB-435 is 21.2 µM (inactive); with SF-295 it was 15.1 µM (inactive); in the test on ACHN, 20.1 µM (inactive); with SR, 6.38 µM (inactive); in the test with HCC 2998, 15.3 µM (inactive); in the test on NCI-H23 it was 17.5 µM (inactive). In addition, the GI50 with SN12C is 13.1 µM (inactive); with NCI-H522, 4.06 µM (inactive); in the test on UACC-257 it was 7.53 µM (inactive); in the test with MDA-N, 13.8 µM (inactive); with IGROV-1 it was 10.2 µM (inactive); in the test on M14, 13.7 µM (inactive). Moreover, the GI50 is 10.3 µM (inactive) with LOX IMVI; 21.7 µM (inactive) in the test with SW-620; 2.65 µM (inactive) in the test on OVCAR-3; 19.3 µM (inactive) with SK-OV-3; 33.2 µM (inactive) with HL-60; 16.4 µM (inactive) in the test with KM12. The results for the GI50 in the test with COLO 205 and with MDA-MB-231 were 4.71 µM (inactive) and 0.44 µM (active), respectively.
`CC(=O)O[C@H]1CC[C@@]2(C)C(=CC[C@H]3[C@@H]4C[C@H](N5CCOCC5)[C@H](OC(C)=O)[C@@]4(C)CC[C@@H]32)C1`: the GI50 is > 100 µM (inactive) in the test on MDA-MB-435; > 100 µM (inactive) with SF-295; > 100 µM (inactive) with ACHN; 86.5 µM (inactive) in the test with SR; > 100 µM (inactive) in the test with HCC 2998; > 100 µM (inactive) in the test on NCI-H23. For the same compound, the GI50 in the test with SN12C, in the test on NCI-H522, in the test with UACC-257, in the test on MDA-N, in the test on IGROV-1 and with M14 was > 100 µM (inactive) each time. In addition, the GI50 in the test on LOX IMVI is > 100 µM (inactive); with SW-620 it was > 100 µM (inactive); in the test on OVCAR-3 it was > 100 µM (inactive); with SK-OV-3, > 100 µM (inactive); in the test with HL-60, 54.2 µM (inactive); with KM12, > 100 µM (inactive). Moreover, the GI50 in the test on COLO 205 and in the test with MDA-MB-231 was > 100 µM (inactive) throughout.
`CSC[C@H](NC(=O)COc1cccc2cnccc12)C(=O)NC(Cc1ccccc1)C(O)C(=O)N1CSC[C@H]1C(=O)NC(C)(C)C` (stereo not given in full): the GI50 in the test on MDA-MB-435 was 87.5 µM (inactive); with SF-295 it was 60.4 µM (inactive); in the test on ACHN it was 24.4 µM (inactive); in the test on SR it was 36.8 µM (inactive); in the test on HCC 2998, > 100 µM (inactive); in the test with NCI-H23 it was 82.4 µM (inactive). Moreover, the GI50 with SN12C is 84.7 µM (inactive); with NCI-H522, > 100 µM (inactive); in the test on UACC-257 it was 29.2 µM (inactive); with MDA-N, 38.4 µM (inactive); with IGROV-1, > 100 µM (inactive); in the test with M14 it was 78.2 µM (inactive). Also, the GI50 with LOX IMVI was 31.8 µM (inactive); in the test on SW-620 it was > 100 µM (inactive); with OVCAR-3 it was 69.8 µM (inactive); in the test with SK-OV-3 it was > 100 µM (inactive); in the test with HL-60, 33.8 µM (inactive); in the test with KM12, 53.2 µM (inactive). The GI50 in the test on COLO 205 is 27.5 µM (inactive); in the test on MDA-MB-231, > 100 µM (inactive).
`NC(=O)CC1(O)C=CC(=O)C=C1`: the GI50 with MDA-MB-435 is > 100 µM (inactive); in the test with SF-295, > 100 µM (inactive); with ACHN, > 100 µM (inactive); in the test on SR it was 88.7 µM (inactive); in the test with HCC 2998 it was > 100 µM (inactive); in the test with NCI-H23, > 100 µM (inactive). Moreover, the GI50 in the test on SN12C is > 100 µM (inactive); in the test on NCI-H522, 26.8 µM (inactive); in the test on UACC-257, > 100 µM (inactive); with MDA-N it was > 100 µM (inactive); with IGROV-1 it was > 100 µM (inactive); in the test on M14, > 100 µM (inactive). The GI50 in the test on LOX IMVI, in the test with SW-620, in the test with OVCAR-3, in the test with SK-OV-3, in the test on HL-60 and in the test with KM12 was > 100 µM (inactive) in each case. Besides, the GI50 in the test on COLO 205 and in the test with MDA-MB-231 was > 100 µM (inactive) in each case.
For the compound `O=c1[nH]/c(=C/c2ccc(OCc3ccccc3)cn2)c(=O)[nH]/c1=C/c1ccc(F)cc1`, the GI50 is 0.0902 µM (active) with MDA-MB-435; 0.33 µM (active) with SF-295; 1.72 µM (inactive) in the test with ACHN; 0.0815 µM (active) in the test with SR; 1.42 µM (inactive) in the test with HCC 2998; 2.89 µM (inactive) in the test with NCI-H23. The GI50 with SN12C was 0.785 µM (active); with NCI-H522, 0.41 µM (active); with UACC-257, 0.512 µM (active); in the test with MDA-N it was 0.069 µM (active); in the test on IGROV-1 it was 0.335 µM (active); in the test on M14, 0.698 µM (active). Moreover, the GI50 was 1.62 µM (inactive) with LOX IMVI; 0.416 µM (active) with SW-620; 0.207 µM (active) with OVCAR-3; 0.794 µM (active) in the test with SK-OV-3; 0.217 µM (active) with HL-60; 0.344 µM (active) in the test with KM12. For the same compound, the GI50 with COLO 205 was 0.55 µM (active); with MDA-MB-231 it was 8.13 µM (inactive).

These data come from ChEMBL document CHEMBL1201862, “PubChem BioAssay data set” (2004).
